Test results taken from PMC6254011, “Design, Synthesis and Anti-HIV Integrase Evaluation of 4-Oxo-4H-quinolizine-3-carboxylic Acid Derivatives” (Molecules, 2009).

Experiments:
[1] = target: T1, recombinant HIV integrase (Human immunodeficiency virus type 1 group M subtype B, UniProt P04585); test: HIV integrase inhibition assay (microtiter plate, biotin donor DNA / digoxigenin target DNA, colorimetric); assay type: biochemical; details: total inhibitory effect (3′ process reaction and strand transfer reaction), initial concentration 100 μg/mL, class symbol; for inhibition at 100 µg/mL: read-out: IC50 (μg/mL)
T1 construct: recombinant HIV integrase
From the text: The target compounds 8, 9, 12, 14 were screened against purified HIV IN to determine any potential inhibitory activity. Thus, a synthesized 30 oligonucleotide and a 20 oligonucleotide were used as donor DNA and target DNA, respectively, which were purchased from Shanghai Sangon Biological Engineering Technology & Services Co. Ltd. The donor DNA was biotinylated at the 5′ end (5′ bio-DNA) and immobilized on streptavidin-coated 96-well microtiter plates. To the donor DNA streptavidin-coated 96-well microtiter plate were added test sample, 3' digoxygenin-labeled target DNA (3' dig-DNA) and recombinant HIV integrase and subjected to incubation in optimized condition.
The plate was further washed with phosphate-buffered saline (PBS) containing 0.1% Tween®-20 and anti-digoxigenin-peroxidase (POD, 100 µL) was added to each well. After incubation at 37°C for 60 min, the plate was washed with PBS containing 0.1% Tween®-20. The digoxygenin-labeled products were visualized by adding a POD substrate, tetramethylbenzidine (TMB). The colorimetric reaction was stopped by addition of 0.5 mol/L H2SO4 (100 µL), and the absorbance was measured at 450 nm on a microplate reader. The total inhibitory effect (including inhibiting 3′ process reaction and strand transfer reaction) were obtained by comparing the absorbance of drug group with control group (without test compound).

[2] = Solubility in water (qualitative remark); assay type: physicochemical
[3] = Mg2+ binding by UV-Vis titration in CH3CN; assay type: physicochemical
Experimental: Inspirited by this assumption, preliminary ion binding experiments were also carried out by UV-Vis spectroscopy, using compound 14a as an example. […] As the Mg^2+ concentration (as perchlorate salt) increased, the absorption intensity of the peak at 414 nm first decreased and then the wavelength shifted blue to around 402 nm. […] However, the Mg^2+ induced a blue shift of the absorption curve of compound 14a. Similar behaviors were also observed for other divalent metals, including Mn^2+, Co^2+, Cu^2+, Ca^2+ and Ni^2+ (not shown in Figure 3).
Figure 2 Changes of UV-vis spectra with 14a in CH3CN on addition of 0-16×10^-6 mol·L^-1 of [Mg^2+] at 25 °C. Conditions: [Mg^2+] =2 × 10^-3 M. [14a] = 2 × 10^-5 MBlack: 0×10^-6 mol·L^-1, blue: 2×10^-6 mol·L^-1, red: 4×10^-6 mol·L^-1, navy: 6×10^-6 mol·L^-1, brown: 8×10^-6 mol·L^-1, green: 10×10^-6 mol·L^-1, dark cyan: 12×10^-6 mol·L^-1, brass: 16×10^-6 mol.L^-1.
Figure 3 UV-Vis absorption spectra of free 14a and 14a in the presence of K^+, Na^+ or Mg^2+ ion in CH3CN solution. Conditions: [14a] = 2 × 10^-5 M; [Mg^2+] = [K^+] = [Na^+] = 2×10^-3 M; Black: 14a, blue: Na^+ complex, red: K^+ complex, navy: Mg^2+ complex.

Compound: O=C(O)c1cc(-c2nc3cc(Cl)ccc3[nH]2)c2ccccn2c1=O [14b, 1-(5(6)-Chloro-1H-benzimidazol-2-yl)-4-oxo-4H-quinolizine-3-carboxylic acid]
- melting point: > 300 °C
- inhibition at 100 µg/mL [1]: < 50%

Compound: O=C(O)c1cc(NS(=O)(=O)c2ccc(Cl)cc2)c2ccccn2c1=O [8c, 1-p-Chlorophenylsulfonamido-4-oxo-4H-quinolizine-3-carboxylic acid]
- melting point: > 300 °C
- inhibition at 100 µg/mL [1]: < 50%

Compound: Cc1ccc(S(=O)(=O)Nc2cc(C(=O)O)c(=O)n3ccccc23)cc1 [8b, 1-p-Methylphenylsulfonamido-4-oxo-4H-quinolizine-3-carboxylic acid]
- melting point: > 300 °C
- inhibition at 100 µg/mL [1]: < 50%

Compound: COc1cc(C(=O)Nc2cc(C(=O)O)c(=O)n3ccccc23)cc(OC)c1OC [9a, 1-(3,4,5-Trimethoxyphenylcarbonylamino)-4-oxo-4H-quinolizine-3-carboxylic acid]
- melting point: 280 to 282 °C
- inhibition at 100 µg/mL [1]: < 50%

Compound: O=C(O)c1cc(NS(=O)(=O)c2ccc([N+](=O)[O-])cc2)c2ccccn2c1=O [8e, 1-p-Nitrophenylsulfonamido-4-oxo-4H-quinolizine-3-carboxylic acid]
- melting point: > 300 °C
- inhibition at 100 µg/mL [1]: < 50%

Compound: 1-(3,4-Dimethoxystyrylcarboxylamino)-4-oxo-4H-quinolizine-3-carboxylic acid [9b]
- IC50 (μg/mL) [1]: -^2 (“-” indicates that the HIV-IN inhibitory effect was less than 50% at the initial concentration)

Compound: COc1ccc2[nH]c(-c3cc(C(=O)O)c(=O)n4ccccc34)nc2c1 [14c, 1-(5(6)-Methoxy-1H-benzimidazol-2-yl)-4-oxo-4H-quinolizine-3-carboxylic acid]
- melting point: > 300 °C
- inhibition at 100 µg/mL [1]: < 50%

Compound: O=C(O)c1cc(-c2nc3ccccc3s2)c2ccccn2c1=O [compound 12, 1-benzothiazol-2-yl-4-oxo-4H-quinolizine-3-carboxylic acid]
- melting point: > 300 °C
- inhibition at 100 µg/mL [1]: < 50%

Compound: O=C(O)c1cc(NS(=O)(=O)c2ccccc2)c2ccccn2c1=O [8a, 1-Phenylsulfonamido-4-oxo-4H-quinolizine-3-carboxylic acid]
- melting point: 245 to 247 °C
- inhibition at 100 µg/mL [1]: < 50%

Compound: O=C(O)c1cc(-c2nc3ccccc3[nH]2)c2ccccn2c1=O [14a, 1-(1H-Benzimidazol-2-yl)-4-oxo-4H-quinolizine-3-carboxylic acid]
- solubility in water [2]: low solubility
- melting point: > 300 °C
- change of UV-Vis absorption in the presence of Na+ or K+ ([3]; 100-fold equivalent amount of Na+ or K+): no obvious change
- change of UV-Vis absorption curve upon addition of Mg2+ ([3]; [14a] = 2 × 10^-5 M): two-step shift of the absorption curve
- inhibition at 100 µg/mL [1]: < 50%

Compound: COc1ccc(S(=O)(=O)Nc2cc(C(=O)O)c(=O)n3ccccc23)cc1 [8d, 1-p-Methoxyphenylsulfonamido-4-oxo-4H-quinolizine-3-carboxylic acid]
- melting point: > 300 °C
- inhibition at 100 µg/mL [1]: < 50%
